“Also recorded” adds a separate entry of the source. Read-outs that look alike come from different tables or passages of the source.

The source of these data is patent US10130714B2 (priority 2012, dated 2018).

In series [1] the test system is recombinant NIBRG-14 (A/Viet Nam/1194/2004) H5N1 virus. The series can be described thus: microbe, parasite or virus in culture. The format is cell-based, avian H5N1 influenza virus. To be noted: for EC50: Influenza A virus, H5N1, read-out: EC50 against avian H5N1 virus.
In series [2] the target is neuraminidase of influenza A/WSN/1933 (H1N1) virus (Influenza A virus, UniProt P03470). Kind of series: biochemical. The format is biochemical.
The next series deals with A/WSN/1933 (H1N1) virus. The series can be described thus: Cytopathic prevention assay in MDCK cells, H1N1. The format is cell-based, influenza A/WSN/1933 (H1N1). Conditions: for anti-influenza activity (in words): H1N1 virus. As to the method:
The cytopathic prevention assays in Madin-Darby canine kidney (MDCK) cells were conducted to evaluate the anti-influenza activity. To our anticipation, the ZA-7-conjugates were potent inhibitors against human H1N1 virus (Table 2). The ZA-1-conjugates 9-12 also resumed anti-influenza activity in the cell-based assays. […] The anti-influenza activity could not be caused by caffeic esters alone. (Salomon, R. et al. Proc. Natl. Acad. Sci. U.S.A. 2007, 104, 12479)
The anti-flu activities of neuraminidase inhibitors were measured by the EC50 values that were the concentrations of NA inhibitor for 50% protection of the H1N1 CPE activities. Fifty μL diluted H1N1 at 100 TCID50 were mixed with equal volumes of NA inhibitors at varied concentrations. The mixtures were used to infect 100 μL of MDCK cells at 1×10^5 cells/mL in 96-wells. After 48 h incubation at 37° C. under 5.0% CO2, the cytopathic effects (CPE) were determined with CellTiter 96® AQueous Non-Radioactive Cell Proliferation Assay reagent as described above. Inhibitor EC50 value were determined by fitting the curve of percent CPE versus the concentrations of NA inhibitor using Graph Pad Prism 4.
For orientation: Cytopathic effects are the visible damage that an infection or toxin causes in cultured cells.

For series [3], the system named is mRNA encoding IL-6 in LPS-activated RAW264.7 cells. Type of series: cell-based.
For series [4], the system named is mRNA encoding TNF-α in LPS-activated RAW264.7 cells. The format is cell-based.
The test system of series [5] is influenza A/Cal/07/2009 H1N1. Further details: species or system BALB/c mice. To be noted: mouse, in vivo.
For series [6], the system named is NIBRG-14 (A/VietNam/1194/2004) H5N1. Type of series: in vivo, BALB/c mice. To be noted: for survival of H5N1 infected mice (in words): 12 μmol/kg/day intranasal, 10 LD50 NIBRG-14, FIG. 17A/17B.
For series [7] the following is noted: humans; cited from earlier work.
A further series concerns IL-6. On the set-up: species or system mice. To be noted: mouse, in vivo.
The conditions of series [8]: Sprague Dawley, rat.
The subject of another series is IFN-γ. On the set-up: species or system mice. Conditions: mouse, in vivo.
Setting [9] is: Influenza A virus, MDCK, A/WSN/1933 (H1N1) virus, table data are ranges or single assay results, read-out: EC50 (nM), anti-influenza activity.
Setting [10] is: A/WSN/1933 (H1N1) virus, table data are ranges or single assay results, read-out: EC50 (nM), anti-influenza activity.

neuraminidase of influenza A/WSN/1933 (H1N1) virus, sequence (P03470 whole entry, looked up): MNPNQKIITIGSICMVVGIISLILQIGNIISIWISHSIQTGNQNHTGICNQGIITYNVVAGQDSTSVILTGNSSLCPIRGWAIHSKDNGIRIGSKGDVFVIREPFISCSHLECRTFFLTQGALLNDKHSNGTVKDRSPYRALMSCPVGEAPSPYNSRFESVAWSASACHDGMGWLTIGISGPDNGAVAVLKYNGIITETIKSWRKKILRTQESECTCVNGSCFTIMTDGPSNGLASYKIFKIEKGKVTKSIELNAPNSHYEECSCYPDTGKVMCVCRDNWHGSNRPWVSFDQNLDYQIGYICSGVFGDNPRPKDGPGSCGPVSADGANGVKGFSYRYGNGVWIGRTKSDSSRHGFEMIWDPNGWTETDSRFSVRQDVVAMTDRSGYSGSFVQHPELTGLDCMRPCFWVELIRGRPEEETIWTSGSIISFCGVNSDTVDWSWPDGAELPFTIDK

Take `CC(=O)NC1C(NC(=N)N)C=C(C(=O)O)OC1C(OC(=O)NCCCO)C(O)CO` (centres unmarked) [ZA-7-HP (6), 5-Acetylamino-6-[2,3-dihydroxy-1-(3-hydroxypropylcarbamoyloxy)propyl]-4-guanidino-5,6-dihydro-4H-pyran-2-carboxylic acid]: the EC50 in series [1] amounted to 820 nM. Further, the IC50 – broadly, the concentration needed to halve the response being measured – in series [2] lay within 11.7 to 19.8 nM.

Regarding `CC(=O)NC1C(NC(=N)N)C=C(C(=O)O)OC1C(OC(=O)NCCCOC(=O)c1ccc2ccccc2c1O)C(O)CO` (centres unmarked) [ZA-7-HNAP (4)], the EC50 in the series on A/WSN/1933 (H1N1) virus (setting [9]) lay in the range of 50 to 168 nM. The same molecule registered a half-maximal inhibitory concentration (IC50) in series [2] of 0.7 to 3.6 nM.

For the molecule `O=C(O)c1ccc2ccccc2c1O` [HNAP, 1-hydroxy-2-naphthoic acid, reference compound], in the series on A/WSN/1933 (H1N1) virus (setting [9]), the EC50 was more than 100000 nM.

`O=C(O)/C=C/c1ccc(O)c(O)c1` [CA, caffeic acid, reference compound]: the “mRNA encoding IL-6” value in series [3] is “dose-dependent decreases”. Further, the “mRNA encoding TNF-α” value in series [4] is on record as “dose-dependent decreases”. For the same molecule, the EC50 with A/WSN/1933 (H1N1) virus (setting [9]) is more than 100000 nM. Further, in series [5], the “survival of H1N1 infected mice (in words)” value is reported as “all the mice died at day 12”. Besides, the “NA inhibitory activity (in words)” value in series [2] was “did not exhibit any NA inhibitory activity”.

On to `CC(=O)NC1C(NC(=N)N)C=C(C(=O)OCCCOC(=O)C=Cc2ccc3c(c2)OCO3)OC1C(O)C(O)CO` (centres unmarked) [ZA-1-MCA (10)], for which, in the series on A/WSN/1933 (H1N1) virus (setting [9]), the EC50 is 28 nM. In series [2], the concentration for half-maximal inhibition (IC50) was 3990 nM.

As for `CC(=O)NC1C(N=C(N)N)C=C(C(=O)OCCCOC(=O)c2ccc3ccccc3c2O)OC1C(O)C(O)CO` (centres unmarked) [ZA-1-HNAP (12)], the EC50 in the series with A/WSN/1933 (H1N1) virus (setting [9]) turned out to be 48 nM. Further, in series [2], it took 590 nM to reach half-maximal inhibition (IC50).

On to `O=C(/C=C/c1ccc(O)c(O)c1)O[C@@H]1C[C@](O)(C(=O)O)C[C@@H](O)[C@H]1O` [chlorogenic acid, reference compound], for which the “anti-influenza activity (in words)” value in the series with A/WSN/1933 (H1N1) virus is “inactive”.

In the case of `CC(=O)N[C@H]1[C@H]([C@H](O)[C@H](O)CO)OC(C(=O)O)=C[C@@H]1N=C(N)N` [ZA, zanamivir, reference compound], the EC50 was 680 nM in series [1]; 3.5 to 20.2 nM in the series with A/WSN/1933 (H1N1) virus (setting [10]); 14 nM in the series on A/WSN/1933 (H1N1) virus (read-out: EC50 (nM), anti-influenza activity, A/WSN/1933 (H1N1) virus, table data are ranges or single assay results). In addition, in [6], the “survival of H5N1 infected mice (in words)” value is recorded as “did not improve the survival rate”. The “survival at day 14 / protection from virus-induced death” value in series [5] turned out to be 10%. Also, in series [5], the “survival of H1N1 infected mice (in words)” value is recorded as “all the mice died at day 12”. In addition, the bioavailability (commonly the share of a dose that reaches the circulation, judged against a reference dose that is usually intravenous) in [7] is given as approximately 5%.

`O=C(/C=C/c1ccc(O)c(O)c1)OCCCO` [3-hydroxypropyl caffeate, reference compound]: in the series on A/WSN/1933 (H1N1) virus, the “anti-influenza activity (in words)” value was “inactive”.

Turning to `CC(=O)NC1C(NC(=N)N)C=C(C(=O)O)OC1C(OC(=O)NCCCOC(=O)C=Cc1ccc(O)c(O)c1)C(O)CO` (centres unmarked) [ZA-7-CA (1)], the “mRNA encoding IL-6” value in series [3] is on record as “dose-dependent decreases”. Also, in series [1], the “potency relative to zanamivir against H5N1” value is given as “about 13 fold” and the EC50 is 50 nM. Further, the “level of IL-6 in serum” value with IL-6 is recorded as “lower”. The “stability / enzymatic cleavage in plasma” value in series [8] was “released a degradation product ZA-7-HP (6)”. For the same molecule, the “survival of H5N1 infected mice (in words)” value in [6] is “all survived”. Besides, in series [4], the “mRNA encoding TNF-α” value is listed as “dose-dependent decreases”. Moreover, the EC50 with A/WSN/1933 (H1N1) virus (setting [9]) fell in the range of 1.4 to 10.6 nM. Further, in series [5], the “protection of H1N1 virus infected mice” value was “greater protection than ZA, CA or ME”; the “protection of mice from influenza virus infection” value is given as “did not show significant protection”; the “survival of H1N1 infected mice (in words)” value is “all the mice died at day 12 except for those treated with conjugate 1; also recorded: all survived at day 14”; the “survival rate at day 14” value was 40%. Moreover, the IC50 in series [2] lay within 2.9 to 7.4 nM. For the same molecule, the “level of IFN-γ in serum” value in the series on IFN-γ was “lower”.

In the case of `CC(=O)NC1C(NC(=N)N)C=C(C(=O)OCCCOC(=O)c2cc(N)ccc2O)OC1C(O)C(O)CO` (centres unmarked) [ZA-1-ME (11)], the EC50 in the series with A/WSN/1933 (H1N1) virus (setting [9]) was found to be 16 nM. Further, half-maximal inhibition in series [2] (IC50) was put at 996 nM.

For the molecule `CC(=O)NC1C(NC(=N)NC(=O)C(C)c2ccc(CC(C)C)cc2)C=C(C(=O)O)OC1C(O)C(O)CO` (centres unmarked) [ZA-G-Ibu (47)], the EC50 in the series on A/WSN/1933 (H1N1) virus (setting [9]) is 18 to 20 nM. For the same molecule, in series [2], the half-inhibitory concentration (IC50) fell in the range of 44 to 81 nM.

For `CC(=O)NC1C(NC(=N)N)C=C(C(=O)O)OC1C(OC(=O)NCCCOC(=O)c1cc(N)ccc1O)C(O)CO` (centres unmarked) [ZA-7-ME (3)], the “mRNA encoding IL-6” value in series [3] is recorded as “dose-dependent decreases”. Besides, the EC50 in [1] is 430 nM. Moreover, in the series on IL-6, the “level of IL-6 in serum” value is on record as “lower”. The “survival of H5N1 infected mice (in words)” value in series [6] is given as “did not provide better protection effect than ZA”. In addition, the “mRNA encoding TNF-α” value in series [4] is on record as “dose-dependent decreases”. Besides, in series [5], the “protection of H1N1 virus infected mice” value is on record as “greater protection than ZA, CA or ME; also recorded: good activity”. Also, the IC50 in series [2] fell in the range of 8.6 to 56.3 nM. The “level of IFN-γ in serum” value in the series with IFN-γ is “lower”.

Regarding “3,4-(methylenedioxy)cinnamic acid [MCA, reference compound]”, the “mRNA encoding IL-6” value in series [3] is listed as “dose-dependent decreases”. The “mRNA encoding TNF-α” value in series [4] is “dose-dependent decreases”. For the same molecule, the EC50 with A/WSN/1933 (H1N1) virus (setting [10]) is more than 100000 nM. Moreover, in series [2], the “NA inhibitory activity (in words)” value is “did not exhibit any NA inhibitory activity”. Also, in series [2] (read-out: IC50 (nM), influenza neuraminidase inhibition), the half-inhibitory concentration (IC50) is more than 100000 nM.

For the molecule `Nc1ccc(O)c(C(=O)O)c1` [ME, mesalazine, reference compound], the “mRNA encoding IL-6” value in series [3] was “dose-dependent decreases”. Moreover, the “mRNA encoding TNF-α” value in series [4] is “dose-dependent decreases”. The EC50 in the series on A/WSN/1933 (H1N1) virus (setting [9]) is more than 100000 nM. In addition, in series [2], the “NA inhibitory activity (in words)” value is reported as “did not exhibit any NA inhibitory activity”.

On to `CC(=O)NC1C(NC(=N)N)C=C(C(=O)O)OC1C(OC(=O)NCCCOC(=O)c1ccc(O)c(O)c1)C(O)CO` (centres unmarked) [ZA-7-DHBA (5)], for which the EC50 in the series with A/WSN/1933 (H1N1) virus (setting [9]) came out at 53 nM. The same molecule yielded an IC50 in series [2] of 2.9 nM.

`CC(=O)NC1C(NC(=N)N)C=C(C(=O)O)OC1C(OC(=O)NCCCNC(=O)C=Cc1ccc(O)c(O)c1)C(O)CO` (centres unmarked) [ZA-7-CA-amide (7)]: the “survival rate of H5N1 infected mice (in words)” value in series [6] (1.2 μmol/kg/day intranasal, FIG. 17B) is reported as “improved survival rate”. Besides, the “survival of H5N1 infected mice (in words)” value in series [6] is “greater potency”. The EC50 in the series with A/WSN/1933 (H1N1) virus (setting [10]) is 5.9 nM. Further, the EC50 with A/WSN/1933 (H1N1) virus (setting [9]) was found to be 5.1 nM. Also, in [5], the “survival at day 14” value came out at 50%, the “survival at day 14 / protection from virus-induced death” value is reported as 100% and the “survival rate of H1N1 infected mice (in words)” value is reported as “did not improve the survival rate”. The IC50 in series [2] was in the range of 41.3 to 60.3 nM.

Turning to `CC(=O)NC1C(NC(=N)N)C=C(C(=O)O)OC1C(OC(=O)NCCCOC(=O)C=Cc1ccc2c(c1)OCO2)C(O)CO` (centres unmarked) [ZA-7-MCA (2)], in [2], the IC50 fell in the range of 5.4 to 7.9 nM.

In the case of `CC(=O)NC1C(NC(=N)N)C=C(C(=O)OCCCOC(=O)C=Cc2ccc(O)c(O)c2)OC1C(O)C(O)CO` (centres unmarked) [ZA-1-CA (9)], the EC50 in the series on A/WSN/1933 (H1N1) virus (setting [9]) was determined as 25 nM. For the same molecule, the IC50 in [2] was 2850 nM.

`CC(=O)NC1C(NC(=N)N)C=C(C(=O)O)OC1C(OC(=O)NCCCNC(=O)c1ccc2ccccc2c1O)C(O)CO` (centres unmarked) [ZA-7-HNAP-amide (8)]: the EC50 in the series with A/WSN/1933 (H1N1) virus (setting [9]) is 6.6 nM. The same molecule yielded a half-inhibitory concentration (IC50) in [2] of 3.1 nM.

Consider `CC(C)(C)OC(=O)NCCCOC(=O)C=Cc1ccc(O)c(O)c1` [3-(tert-butoxyamido)propyl caffeate, reference compound], for which, in the series on A/WSN/1933 (H1N1) virus, the “anti-influenza activity (in words)” value is “inactive”.
